Measurements reported in patent US5631146A, “DNA aptamers and catalysts that bind adenosine or adenosine-5'-phosphates and methods for isolation thereof” (The General Hospital Corporation, priority 1995, dated 1997).

Columns and labels:
[1] = test system: adenosine/ATP-binding single-stranded DNA aptamer (minimal ATP aptamer DH25.42, SEQ ID NO:46); assay: ATP analog elution of bound aptamer from ATP-agarose column; details: 3 column volumes of 1.5 mM analog
Method: FIG. 9A-C are graphs of exemplary elution profiles with analogs of ATP. DNA was loaded onto an ATP-agarose affinity column and washed with 10 column volumes of wash buffer. Bound DNA was then eluted with 3 column volumes of wash buffer containing 1.5 mM analog, then washed with 2 more column volumes of wash buffer; remaining DNA was then eluted in 3 column volumes of wash buffer containing 1.5 mM ATP. Data point at column volume 19 is that remaining on the column after all washes. Elution profiles with 9A. adenosine, 9B. 3-methyl adenine, and 9C. purine riboside.
FIG. 10 is a schematic diagram showing the specifity of the adenosine/ATP aptamer, as determined by analog elution experiments. ++, 85-100% of DNA eluted in 3 column volumes of 1.5 mM ligand; +, 70-84% of DNA eluted in 3 column volumes of 1.5 mM ligand; +/-, 6%-69% of DNA eluted in 3 column volumes of 1.5 mM ligand; -, <5% of DNA eluted in 3 column volumes of 1.5 mM ligand. The regions most important for binding are highlighted by the shaded boxes. […]
10-500 ng (1.2 pmol-60 pmol) of affinity purified DNA was loaded onto a 1/4 ml bed volume ATP-agarose column pre-equilibrated with column buffer. […] Each fraction was then analyzed by Cerenkov counting. […]

[2] = target: adenosine/ATP-binding single-stranded DNA aptamer (minimal ATP aptamer DH25.42, SEQ ID NO:46); assay: Kd for adenosine by analytical ultrafiltration; details: room temperature, column buffer (300 mM NaCl, 5 mM MgCl2, 20 mM Tris pH 7.6), 5.49 nM [3H]adenosine, average of two estimates, read-out: Kd for adenosine in solution
Method: Although quantitative binding data from column elution experiments is imprecise, an estimate of adenosine affinity in solution was obtained by ultrafiltration experiments (Jenison et al., Science 263:1425-1429, (1994)).
The Kd for adenosine was measured by analytical ultrafiltration (Jenison et al., Science 263:1425-1429, (1994)). In this technique bound and unbound ligand partition across a membrane in a ultra filtration device. DNA (0.06 μM-30 μM) was incubated for 5 min. at room temperature in 200 μl of column buffer containing 5.49 nM [2,8,5'^3H] adenosine. The reaction mixture was loaded onto an Microcon 10 microconcentrator (Amicon) and spun at 14000 RPM in an Eppendorf 5415 centrifuge for 4 min., resulting in 100 μl of ultrafiltrate. This method could not be used with ATP because only 30% of ATP passed through the filter in 50% of the volume. Even with adenosine, only 40-45% passed through in 50% of the volume. The Kd was estimated from the concentration of DNA calculated to decrease the amount of adenosine passing through the filter by 50%. During the course of the experiment the DNA concentration increases by a factor of two since the DNA is retained above the filter; therefore, using the initial DNA concentration would give an artificially low Kd, and using the final DNA concentration would give an artificially high Kd. The Kd reported is the average of these two estimates. […]

Compound | elution of bound aptamer from the ATP-agarose column by analog [1] | Kd [2]
Nc1ncnc2c1ncn2[C@H]1O[C@H](CO)[C@@H](O)[C@H]1O [9-α-ribofuranosyladenine] | did not elute bound aptamer | –
Nc1ncnc2c1ncn2[C@@H]1O[C@H](CO)[C@@H](O)[C@H]1O [adenosine] | – | 6 ± 3 µM
